According to US9598419B1, “Imidazotriazine and imidazodiazine compounds” (Universite de Montreal, priority 2014, dated 2017):

Key:
[1] = target: T1, PAR1 (Homo sapiens, UniProt P25116); conditions: ACS patients, phase III; cited from earlier work
T1 construct: host or cells: ACS patients (clinical trial)
T1 sequence (P25116 22-425): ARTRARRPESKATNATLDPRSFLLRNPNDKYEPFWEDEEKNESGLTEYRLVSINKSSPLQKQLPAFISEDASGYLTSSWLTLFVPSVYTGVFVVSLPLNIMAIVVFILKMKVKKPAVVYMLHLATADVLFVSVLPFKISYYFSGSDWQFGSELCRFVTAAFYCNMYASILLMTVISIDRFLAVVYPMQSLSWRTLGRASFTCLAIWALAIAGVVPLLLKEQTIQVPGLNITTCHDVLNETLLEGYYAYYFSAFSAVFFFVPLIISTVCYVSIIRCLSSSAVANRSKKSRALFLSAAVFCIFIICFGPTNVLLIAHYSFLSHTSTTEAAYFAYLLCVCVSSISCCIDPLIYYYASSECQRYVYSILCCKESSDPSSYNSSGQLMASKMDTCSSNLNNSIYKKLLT

[2] = target: T2, PAR4 (Homo sapiens, UniProt Q96RI0); experiment: washed platelet aggregation assay (PAR4 agonist peptides); type: cell-based; conditions: washed platelets
T2 construct: PRP was isolated by centrifugation at 170 g for 14 minutes and platelets were further pelleted; from tissue; host or cells: human washed platelets
T2 sequence (Q96RI0 18-385): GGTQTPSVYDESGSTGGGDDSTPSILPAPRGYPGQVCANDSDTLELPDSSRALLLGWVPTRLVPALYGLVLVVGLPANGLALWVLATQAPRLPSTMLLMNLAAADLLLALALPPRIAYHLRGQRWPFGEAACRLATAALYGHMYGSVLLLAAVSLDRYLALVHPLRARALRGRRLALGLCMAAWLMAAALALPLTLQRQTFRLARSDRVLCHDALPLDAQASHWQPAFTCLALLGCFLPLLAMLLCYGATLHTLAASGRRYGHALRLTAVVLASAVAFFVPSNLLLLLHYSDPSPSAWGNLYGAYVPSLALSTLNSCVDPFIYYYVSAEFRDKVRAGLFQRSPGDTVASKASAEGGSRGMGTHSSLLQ
Method: Human blood was collected in ACD (85 mM tri-sodium citrate, 78 mM citric acid, 110 mM D-glucose, pH 4.4) at a ratio of 1.4 ml per 10 ml blood. PRP was isolated by centrifugation at 170 g for 14 minutes and platelets were further pelleted by centrifugation at 1300 g for 6 minutes. Platelets were washed once with 10 ml ACD containing 1 mg/ml bovine serum albumin Platelets were resuspended at ˜2.5×10^8/ml in Tyrode's Buffer (137 mM NaCl, 2 mM KCl, 1.0 mM MgCl2, 1 mM CaCl2, 5 mM glucose, 20 mM HEPES pH 7.4).

[3] = target: T3, protease-activated receptor type 4 (PAR4) (Homo sapiens, UniProt Q96RI0); conditions: quoted from the abstract; cited from earlier work
T3 sequence (Q96RI0 18-385): T2 sequence (Q96RI0 18-385)

## CCOC(=O)N[C@@H]1CC[C@@H]2[C@@H](C1)C[C@H]1C(=O)O[C@H](C)[C@H]1[C@H]2/C=C/c1ccc(-c2cccc(F)c2)cn1 [vorapaxar]
[1]
  cardiovascular events: did not significantly reduce
  risk of major bleeding: significantly increased

## C[C@H](N)C(=O)N[C@@H](Cc1ccc(O)cc1)C(=O)N1CCC[C@H]1C(=O)NCC(=O)N[C@@H](CCCCN)C(=O)N[C@@H](Cc1ccccc1)C(=O)O [AYPGKF]
[2]
  EC50: 12 µM

## CCOC(=O)c1ccc(-c2nn(Cc3ccccc3)c3ccccc23)cc1 [ethyl 4-(1-benzyl-1H-indazol-3-yl)benzoate]
[3]
  inhibition of PAR4-dependent platelet activation: selective and potent inhibitor
